Test results: patent US8415469B2, “Compounds and methods for kinase modulation, and indications therefor” (Plexxikon Inc., priority 2005, dated 2013)

Assays:
Format in all cases: biochemical
[1] = target: T1, MAP2K1 (Homo sapiens, UniProt Q02750); assay: Z'-Lyte FRET kinase assay (Invitrogen), MAP2K1; details: read-out: IC50, activity toward kinase MAP2K1
T1 construct: purchased Invitrogen (assay run by Invitrogen)

[2] = target: T2, Zap70 (Homo sapiens, UniProt P43403); assay: AlphaScreen kinase assay, Zap70; details: read-out: IC50, activity toward kinase Zap70
T2 construct: P1868.pFastBac1 ZAP70 D327-G606 HIS, WT; His7 (HHHHHHH) (C); made in house
T2 sequence (P43403 with tags, fused parts or gaps): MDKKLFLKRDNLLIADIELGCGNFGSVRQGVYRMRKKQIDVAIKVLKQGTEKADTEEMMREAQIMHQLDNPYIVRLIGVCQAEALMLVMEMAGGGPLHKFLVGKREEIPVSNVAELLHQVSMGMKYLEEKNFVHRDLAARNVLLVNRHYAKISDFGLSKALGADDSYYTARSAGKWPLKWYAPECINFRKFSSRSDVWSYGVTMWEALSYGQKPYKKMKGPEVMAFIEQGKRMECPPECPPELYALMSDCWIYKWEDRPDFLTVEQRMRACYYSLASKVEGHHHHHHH
Procedure, shortened: (§1)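 Biotinylated peptide substrate phosphorylation detected by AlphaScreen with phospho-specific antibody acceptor beads and streptavidin donor beads. Compounds tested as 8-point 1:3 serial dilutions from 20 mM DMSO stocks.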

[3] = target: T3, Jnk2 (Homo sapiens, UniProt P45984); assay: AlphaScreen kinase assay, Jnk2; details: read-out: IC50, activity toward kinase Jnk2
T3 construct: purchased Roche Protein Expression Group (Indianapolis, IN)
T3 sequence (P45984 whole entry): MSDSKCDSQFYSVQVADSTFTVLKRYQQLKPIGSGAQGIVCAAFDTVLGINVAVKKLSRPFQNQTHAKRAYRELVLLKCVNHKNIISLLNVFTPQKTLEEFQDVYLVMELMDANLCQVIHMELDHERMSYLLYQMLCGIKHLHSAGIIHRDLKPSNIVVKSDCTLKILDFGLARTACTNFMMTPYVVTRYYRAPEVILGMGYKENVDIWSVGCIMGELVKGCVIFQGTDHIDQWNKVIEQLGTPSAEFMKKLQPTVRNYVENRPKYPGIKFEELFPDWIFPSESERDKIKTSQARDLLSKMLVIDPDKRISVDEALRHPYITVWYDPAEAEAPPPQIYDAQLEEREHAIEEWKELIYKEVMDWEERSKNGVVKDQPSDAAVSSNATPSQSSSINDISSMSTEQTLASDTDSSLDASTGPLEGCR
Procedure, shortened: as §1

[4] = target: T4, Pyk2 (Homo sapiens, UniProt Q14289); assay: AlphaScreen kinase assay, Pyk2; details: read-out: IC50, activity toward kinase Pyk2
T4 construct: purchased Upstate Biotechnology
T4 sequence (Q14289 whole entry): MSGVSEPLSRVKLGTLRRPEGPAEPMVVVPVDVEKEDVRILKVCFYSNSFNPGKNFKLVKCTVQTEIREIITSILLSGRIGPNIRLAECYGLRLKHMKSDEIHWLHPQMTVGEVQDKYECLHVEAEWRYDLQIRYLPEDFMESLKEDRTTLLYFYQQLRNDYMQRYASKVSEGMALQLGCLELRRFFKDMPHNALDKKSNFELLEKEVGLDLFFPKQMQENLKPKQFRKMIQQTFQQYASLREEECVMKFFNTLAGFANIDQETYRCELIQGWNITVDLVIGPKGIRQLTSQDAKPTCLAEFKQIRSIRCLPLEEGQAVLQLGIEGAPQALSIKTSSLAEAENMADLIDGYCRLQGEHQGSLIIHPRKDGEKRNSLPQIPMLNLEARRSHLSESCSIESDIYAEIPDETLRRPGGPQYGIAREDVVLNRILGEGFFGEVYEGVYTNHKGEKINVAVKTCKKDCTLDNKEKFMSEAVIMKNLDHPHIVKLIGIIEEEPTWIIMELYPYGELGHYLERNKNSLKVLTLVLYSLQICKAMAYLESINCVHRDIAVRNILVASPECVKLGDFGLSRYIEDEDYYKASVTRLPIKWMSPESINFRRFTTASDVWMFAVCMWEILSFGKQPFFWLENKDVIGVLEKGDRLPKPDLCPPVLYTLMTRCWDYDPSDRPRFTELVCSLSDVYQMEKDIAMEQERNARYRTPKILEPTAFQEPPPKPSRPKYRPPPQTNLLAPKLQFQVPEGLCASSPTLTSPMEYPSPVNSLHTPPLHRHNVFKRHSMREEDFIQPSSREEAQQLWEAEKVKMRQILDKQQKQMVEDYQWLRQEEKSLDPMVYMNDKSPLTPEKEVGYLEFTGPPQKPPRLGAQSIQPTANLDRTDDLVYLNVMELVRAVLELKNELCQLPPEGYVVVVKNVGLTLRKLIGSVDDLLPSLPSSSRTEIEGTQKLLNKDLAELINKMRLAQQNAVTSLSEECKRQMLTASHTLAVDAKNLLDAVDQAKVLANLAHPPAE

[5] = target: T5, Itk (Homo sapiens, UniProt Q08881); assay: AlphaScreen kinase assay, Itk; details: read-out: IC50, activity toward kinase Itk
T5 sequence (Q08881 1-620): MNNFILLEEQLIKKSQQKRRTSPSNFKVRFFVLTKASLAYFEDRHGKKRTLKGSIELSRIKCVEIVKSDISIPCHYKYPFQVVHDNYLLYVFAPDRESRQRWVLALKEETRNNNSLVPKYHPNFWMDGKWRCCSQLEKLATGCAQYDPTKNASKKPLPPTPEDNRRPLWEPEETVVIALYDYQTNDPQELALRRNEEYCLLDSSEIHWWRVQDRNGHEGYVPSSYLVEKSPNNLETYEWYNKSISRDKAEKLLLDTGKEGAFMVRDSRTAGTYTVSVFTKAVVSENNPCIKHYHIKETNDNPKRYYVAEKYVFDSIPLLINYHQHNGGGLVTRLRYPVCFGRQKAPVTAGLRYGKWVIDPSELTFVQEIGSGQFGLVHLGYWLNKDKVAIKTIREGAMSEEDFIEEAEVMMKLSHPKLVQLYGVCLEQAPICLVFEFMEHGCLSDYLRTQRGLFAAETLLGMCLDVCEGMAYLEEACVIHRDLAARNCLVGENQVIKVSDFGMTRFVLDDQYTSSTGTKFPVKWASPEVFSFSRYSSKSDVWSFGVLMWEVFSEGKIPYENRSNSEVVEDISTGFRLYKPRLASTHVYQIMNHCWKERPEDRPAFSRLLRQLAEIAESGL
Procedure, shortened: as §1

[6] = target: Gsk3β (Homo sapiens, UniProt P49841); assay: AlphaScreen kinase assay, Gsk3β; details: read-out: IC50, activity toward kinase Gsk3β
Gsk3β, sequence (P49841 whole entry): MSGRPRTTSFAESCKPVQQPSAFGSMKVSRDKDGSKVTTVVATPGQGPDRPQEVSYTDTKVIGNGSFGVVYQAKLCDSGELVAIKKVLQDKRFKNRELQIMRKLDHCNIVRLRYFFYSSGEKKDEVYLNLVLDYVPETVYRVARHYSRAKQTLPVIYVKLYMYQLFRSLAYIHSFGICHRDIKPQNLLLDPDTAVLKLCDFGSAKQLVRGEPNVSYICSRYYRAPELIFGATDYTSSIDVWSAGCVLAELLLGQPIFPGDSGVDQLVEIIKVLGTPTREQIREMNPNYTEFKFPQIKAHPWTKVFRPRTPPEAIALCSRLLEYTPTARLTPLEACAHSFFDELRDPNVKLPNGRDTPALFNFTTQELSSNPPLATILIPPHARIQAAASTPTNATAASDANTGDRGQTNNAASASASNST
Procedure, shortened: as §1

T1 sequence (Q02750 whole entry): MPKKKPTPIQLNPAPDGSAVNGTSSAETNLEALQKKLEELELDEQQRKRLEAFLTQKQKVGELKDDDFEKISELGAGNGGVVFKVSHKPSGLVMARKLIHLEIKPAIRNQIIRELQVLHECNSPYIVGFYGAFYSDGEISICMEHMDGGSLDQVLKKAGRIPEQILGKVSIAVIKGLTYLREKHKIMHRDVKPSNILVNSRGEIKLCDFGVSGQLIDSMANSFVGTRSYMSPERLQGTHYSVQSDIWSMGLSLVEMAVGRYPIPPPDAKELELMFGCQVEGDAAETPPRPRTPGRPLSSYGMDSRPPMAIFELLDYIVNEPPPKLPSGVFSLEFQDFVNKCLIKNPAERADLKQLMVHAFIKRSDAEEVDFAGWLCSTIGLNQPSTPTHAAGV

Row | IC50 [1] [µM] | IC50 [3] [µM] | IC50 [4] [µM] | IC50 [5] [µM] | Structure (SMILES) | other results
1 | ≤ 10 | ≤ 10 | ≤ 10 | – | CC(=O)Nc1cccc(-c2cnc3[nH]cc(C(=O)c4cc(O)ccc4F)c3c2)c1 [Compound P-0001] | IC50 [2]: ≤ 10 µM
2 | – | ≤ 10 | – | ≤ 10 | Cc1c(O)cccc1C(=O)c1c[nH]c2ncc(-c3ccccc3)cc12 [Compound P-0016, (3-Hydroxy-2-methyl-phenyl)-(5-phenyl-1H-pyrrolo[2,3b]pyridin-3-yl)-methanone] | –
3 | – | ≤ 10 | – | ≤ 10 | O=C(c1cccc(O)c1F)c1c[nH]c2ncc(-c3cccnc3)cc12 [Compound P-0027, (2-Fluoro-3-hydroxy-phenyl)-(5-pyridin-3-yl-1H-pyrrolo[2,3-b]pyridin-3-yl)-methanone] | –
4 | – | ≤ 10 | – | ≤ 10 | NC(=O)c1cccc(-c2cnc3[nH]cc(C(=O)c4cccc(O)c4F)c3c2)c1 [Compound P-0034, 3-[3-(2-Fluoro-3-hydroxy-benzoyl)-1H-pyrrolo[2,3-b]pyridin-5-yl]benzamide] | IC50 [2]: ≤ 10 µM
5 | – | ≤ 10 | – | ≤ 10 | CC(=O)Nc1cccc(-c2cnc3[nH]cc(C(=O)c4cccc(O)c4F)c3c2)c1 [Compound P-0035, N-{3-[3-(2-Fluoro-3-hydroxy-benzoyl)-1H-pyrrolo[2,3-b]pyridin-5-yl]-phenyl}-acetamide] | IC50 [2]: ≤ 10 µM
6 | – | – | – | ≤ 10 | O=C(c1cccc(O)c1F)c1c[nH]c2ncc(-c3ccccc3)cc12 [Compound P-0036, (2-fluoro-3-hydroxy-phenyl)-(5-phenyl-1H-pyrrolo[2,3-b]pyridin-3-yl)-methanone] | –
7 | – | – | – | ≤ 10 | CS(=O)(=O)Nc1cccc(-c2cnc3[nH]cc(C(=O)c4cccc(O)c4F)c3c2)c1 [Compound P-0038, N-{3-[3-(2-Fluoro-3-hydroxy-benzoyl)-1H-pyrrolo[2,3-b]pyridin-5-yl]-phenyl}-methanesulfonamide] | IC50 [2]: ≤ 10 µM
8 | – | ≤ 10 | – | – | Cc1ccc(F)cc1C(=O)c1c[nH]c2ncc(-c3cccc(N)c3)cc12 [Compound P-0040] | IC50 [2]: ≤ 10 µM
9 | – | – | – | ≤ 10 | O=C(c1cccc(O)c1F)c1c[nH]c2ncc(Br)cc12 [Compound P-0067, (5-bromo-1H-pyrrolo[2,3-b]pyridin-3-yl)-(2-fluoro-3-hydroxy-phenyl)-methanone] | –
10 | – | ≤ 10 | – | – | Cc1c(NS(C)(=O)=O)cccc1C(=O)c1c[nH]c2ncc(-c3ccccc3)cc12 [Compound P-0082, N-[2-Methyl-3-(5-phenyl-1H-pyrrolo[2,3-b]pyridine-3-carbonyl)-phenyl]-methanesulfonamide] | –
11 | – | – | ≤ 10 | – | CCCS(=O)(=O)Nc1ccc(F)c(C(=O)c2c[nH]c3ncc(-c4ccccc4)cc23)c1F [Compound P-0636, Propane-1-sulfonic acid [2,4-difluoro-3-(5-phenyl-1H-pyrrolo[2,3-b]pyridine-3-carbonyl)-phenyl]-amide] | –

The next lines start with the compound.

Row | Structure (SMILES) | IC50 [1] [µM] | IC50 [3] [µM] | IC50 [4] [µM] | IC50 [5] [µM] | other results
12 | O=C(c1cc(O)ccc1F)c1c[nH]c2ncccc12 [Compound P-0005] | ≤ 10 | ≤ 10 | – | – | –
13 | O=C(c1cccc(O)c1)c1c[nH]c2ncccc12 [Compound P-0011] | ≤ 10 | – | – | – | –
14 | O=C(c1cccc(O)c1)c1c[nH]c2nccc(Cl)c12 [Compound P-0012] | ≤ 10 | – | – | – | –
15 | NC(=O)c1ccc(-c2ccnc3[nH]cc(C(=O)c4cc(F)ccc4F)c23)cc1 [Compound P-0013] | – | ≤ 10 | – | ≤ 10 | –
16 | NC(=O)c1ccc(-c2ccnc3[nH]cc(C(=O)c4ccccc4F)c23)cc1 [Compound P-0014] | ≤ 10 | – | – | – | –
17 | COc1ccc(C(=O)c2c[nH]c3ncc(-c4cccc(/C=C/C(=O)O)c4)cc23)c(Cl)c1 [Compound P-0015] | ≤ 10 | ≤ 10 | ≤ 10 | – | IC50 [6]: ≤ 10 µM; IC50 [2]: ≤ 10 µM
18 | Cc1ccccc1C(=O)c1c[nH]c2nccc(-c3ccc(C(N)=O)cc3)c12 [Compound P-0017] | ≤ 10 | – | – | – | IC50 [6]: ≤ 10 µM
19 | O=C(c1cccc(O)c1)c1c[nH]c2ncc(Br)cc12 [Compound P-0019] | – | – | – | ≤ 10 | –
20 | CS(=O)(=O)c1cccc(-c2cnc3[nH]cc(C(O)c4c(F)ccc(F)c4F)c3c2)c1 (stereo not drawn) [Compound P-0020] | – | – | – | ≤ 10 | –
21 | O=C(c1ccc(O)cc1Cl)c1c[nH]c2ncccc12 [Compound P-0021] | – | – | ≤ 10 | – | –
22 | Nc1cccc(-c2ccnc3[nH]cc(C(=O)c4ccccc4F)c23)c1 [Compound P-0022] | ≤ 10 | – | – | – | –
23 | O=C(c1ccc(O)cc1)c1c[nH]c2ncc(-c3cccs3)cc12 [Compound P-0024, (4-Hydroxy-phenyl)-(5-thiophen-2-yl-1H-pyrrolo[2,3-b]pyridin-3-yl)-methanone] | – | – | ≤ 10 | ≤ 10 | –
24 | O=C(c1cccc(O)c1)c1c[nH]c2ncc(Nc3ccccc3)cc12 [Compound P-0025] | – | ≤ 10 | – | ≤ 10 | –
25 | Nc1ccnc2[nH]cc(C(=O)c3ccccc3)c12 [Compound P-0029] | ≤ 10 | – | – | – | –
26 | O=C(c1cc(O)ccc1F)c1c[nH]c2ncc(-c3cccs3)cc12 [Compound P-0032] | – | – | ≤ 10 | – | IC50 [2]: ≤ 10 µM
27 | Cn1cc(C(F)(F)F)c(-c2ccc(S(=O)(=O)NCc3c[nH]c4ncccc34)s2)n1 [Compound P-0041] | ≤ 10 | – | ≤ 10 | – | IC50 [2]: ≤ 10 µM
28 | Nc1cccc(-c2ccnc3[nH]cc(C(=O)c4cc(F)ccc4F)c23)c1 [Compound P-0046] | ≤ 10 | – | – | – | –
29 | O=C(c1ccccc1F)c1c[nH]c2nccc(-c3ccsc3)c12 [Compound P-0051] | ≤ 10 | – | – | – | –
30 | Oc1cccc(Cc2c[nH]c3ncc(-c4cccs4)cc23)c1F [Compound P-0052, 2-Fluoro-3-(5-thiophen-2-yl-1H-pyrrolo[2,3-b]pyridin-3-ylmethyl)-phenol] | – | ≤ 10 | ≤ 10 | – | –
31 | Cc1ccc(S(=O)(=O)NCc2c[nH]c3ncccc23)cc1 [Compound P-0058] | ≤ 10 | – | ≤ 10 | – | IC50 [2]: ≤ 10 µM
32 | Oc1ccc(F)c(Cc2c[nH]c3ncc(-c4cccnc4)cc23)c1F [Compound P-0078, 2,4-difluoro-3-(5-pyridin-3-yl-1H-pyrrolo[2,3-b]pyridin-3-ylmethyl)-phenol] | – | – | ≤ 10 | – | –
33 | CCCS(=O)(=O)Nc1ccc(F)c(C(=O)c2c[nH]c3ncc(-c4cccnc4)cc23)c1F [Compound P-0088, Propane-1-sulfonic acid [2,4-difluoro-3-(5-pyridin-3-yl-1H-pyrrolo[2,3-b]pyridine-3-carbonyl)-phenyl]-amide] | – | ≤ 10 | ≤ 10 | – | –
34 | COc1ccc(F)c(C(=O)c2c[nH]c3ncc(-c4cccnc4)cc23)c1 [Compound P-0090] | – | ≤ 10 | – | – | –
35 | Fc1cc(F)cc(-c2ccnc3[nH]cc(Sc4ccccn4)c23)c1 [Compound P-0106] | – | – | – | – | IC50 [6]: ≤ 10 µM
36 | Cc1ccccc1C(=O)c1c[nH]c2nccc(-c3cccc(NS(C)(=O)=O)c3)c12 [Compound P-0109] | – | – | – | – | IC50 [6]: ≤ 10 µM
37 | Oc1ccc(F)c(Cc2c[nH]c3ncc(Br)cc23)c1F [Compound P-0122, 3-(5-Bromo-1H-pyrrolo[2,3-b]pyridin-3-ylmethyl)-2,4-difluoro-phenol] | – | – | ≤ 10 | – | –
38 | CN(C)S(=O)(=O)Nc1ccc(F)c(Cc2c[nH]c3ncc(-c4cccnc4)cc23)c1F [Compound P-0166] | – | – | ≤ 10 | – | –
39 | O=C(Nc1ccc(Cc2c[nH]c3ncccc23)cc1)Nc1cccc(C(F)(F)F)c1 [Compound P-0262, 1-[4-(1H-Pyrrolo[2,3-b]pyridin-3-ylmethyl)-phenyl]-3-(3-trifluoromethyl-phenyl)-urea] | – | – | ≤ 10 | – | –
